# Measured values as given in US20060083738A1, “Treatment of cancer by the use of anti fas antibody” (FUSION ANTIBODIES LIMITED, priority 2002, published 2006).
# Tests used:
# Assay type in all cases: cell-based
# Fas / FasL interaction = assay: Immunoprecipitation of Fas receptor and FasL; conditions: 5FU treatment, FIG. 1B
# Fas [1] = assay: Fas expression in response to 5FU treatment, MCF-7; conditions: MCF-7 breast cancer cell line
# Description: (§1) FIG. 1 illustrates FAS/CD95 expression in response to 5-FU and tomudex (TDX).
# (§2) Moreover, procaspase 8 and BID cleavage are not observed in cells treated with either 5PU or anti-Fas monoclonal antibody alone. However, both are activated following co-treatment with 5FU and anti-Fas monoclonal antibody (indicated by loss of full-length procaspase 8 and BID).
# [2] = tested on: procaspase 8, BID, c-FLIP, FasL; assay: Expression and activation of apoptosis regulating proteins in drug-treated cells
# Method: FIG. 2 illustrates expression of apoptosis regulating proteins in MCF-7 cells 72 hours after treatment with 10 μM 5-FU or 100 nM TDX.
# as §2
# Fas [3] = assay: Fas expression in response to 5FU treatment, HCT116; conditions: HCT116 colorectal cancer cell line
# Description: as §1, §2
smiles,measurement,setting,value
"O=c1[nH]cc(F)c(=O)[nH]1 [5FU, 5-Fluorouracil]",interaction between receptor (Fas) and ligand (FasL),Fas / FasL interaction,up-regulated
same,up-regulation of Fas expression,Fas [1],> 10 fold
same,FasL expression,[2]; 5FU treatment,unaffected
same,activation of procaspase 8 or BID,"[2]; 5FU-treated MCF-7 and HCT116 cells, FIG. 1A",does not result in activation of procaspase 8 or BID
same,c-FLIP expression,[2]; 5FU-treated cells or co-treated cells,up-regulated
same,procaspase 8 and BID cleavage,"[2]; single agent or co-treatment, loss of full-length procaspase 8 and BID",not observed
same,up-regulation of Fas expression,Fas [3],> 10 fold
